Here are results for one molecule from patent US9295679B2, “Prodrugs of C-17-heteroaryl steroidal CYP17 inhibitors/antiandrogens: synthesis, in vitro biological activities, pharmacokinetics and antitumor activity” (University of Maryland, Baltimore, priority 2008, dated 2016).

Holding throughout (type): cell-based
Experiment [1] concerns PC-3 cells. In words: Microarray global gene expression in PC-3 cells. The settings on record: 20 μM, 24 hrs. How it is done:
After 24 hour exposure to the agent, total RNA was isolated using the Qiagen RNeasy-Mini Kit following the manufacturer's protocol. Experiments were carried out in duplicate, with triplicate samples (dosed independently on 3 different days) from each experiment pooled for analysis on a single chip. Samples were hybridized to a GeneChip® Human Genome Focus Array (Affymetrix Inc., U.S.A.) and analyzed using an Affymetrix Genechip® Scanner 3000 according to the manufacturer's protocol. Gene ontologies were identified using the online Database for Annotation, Visualization, and Integrated Discovery (DAVID) provided by the National Institute of Allergy and Infectious Diseases and the National Institute of Health. […] Stringent criteria of a minimum EASE/P-Value threshold of 0.001 and a gene count threshold of 5 were used to identify altered gene ontologies.

Experiment [2] concerns PC-3 cells. Nature of the experiment: Absolute [Ca2+]i in PC-3 cells (Fura-2AM). The settings on record: for average [Ca2+]i: 2 hours, Fura-2AM, control 36.49 nM. How it is done:
PC-3 Cells were loaded with either fura-2 or fluo-3 indicator by incubation with 2 μM fura-2/AM or 2 μM fluo-3/AM in RPMI 1640 medium containing 10% fetal bovine serum for >60 min at room temperature. During experiments, the coverslips were mounted in a flow chamber and superfused with oxygenated Locke solution containing (in mM): 10 glucose, 136 NaCl, 5.6 KCl, 1.2 NaH2PO4, 14.3 NaHCO3, 1.2 MgCl2, and 2.2 CaCl2, pH 7.4, at room temperature (22-24° C.).
Cells loaded with fura-2 were placed in a perfusion chamber mounted on an inverted microscope (TE200; Nikon, Tokyo, Japan) equipped with a UV-transmitting objective (SuperFluor, 40×, N.A. 1.4, Nikon). Fura-2 was alternately excited by 340 nm and 380 nm light from monochrometers (Deltascan Illumination System, Photonic Technology International (PTI), South Brunswick, N.J.) and fura-2 emission was passed through a 515 nm longpass filter before detection by a cooled CCD camera (Retiga 2000R, Q-Imaging, Burnaby, Canada). For measurement of Ca^2+ transients in individual cells, coverslips with fluo-3 loaded cells were excited by the output of a 100 W mercury arc lamp that passed through a 480 nm bandpass filter (30 nm bandwidth). Fluorescence emission was passed through a 515 nm longpass filter before capture by a cooled CCD camera (Retiga 2000R, Q-Imaging). Image acquisition was performed with QCapture Pro (Q-Imaging) and analysis was performed with ImageJ (U.S. National Institutes of Health, Bethesda, Md., USA).
Fluo-3 Ca^2+ indicator measurements are reported as the fractional change in fluorescence intensity relative to baseline (ΔF/F0), which was determined as follows. Within a temporal sequence of fluorescence images, a region of interest (ROI) was drawn around each cell to be analyzed. The fluorescence signal from each cell was calculated as the pixel-averaged intensity within each ROI. In these experiments, a slight downward drift in baseline was typically observed, which was principally attributable to photo-bleaching of the indicator. In such cases, the drift was always well fit by a low-amplitude single-exponential decay. The fitted baseline value (F0) at every time point was then used to calculate ΔF/F0. ΔF/F0 values are reported as mean±SE. For fura-2 measurements, [Ca^2+]i was derived using the ratio method of Grynkiewicz et al.^46

Experiment [3] concerns PC-3 cells. Nature of the experiment: Real-time PCR (qRT-PCR) of stress response and cell cycle genes in PC-3 cells. Particulars: 20 μM, 24 hr. How it is done: Cells were treated, lysed and RNA collected and quantified using the same method outlined above. Cells were dosed independently on three separate days (n=3). 1 μg of total RNA was converted to cDNA using ReactionReady™ First Strand cDNA Synthesis kit (SuperArray Bioscience Corp.; Frederick, Md.) following the manufacturer's protocol. 50 ng of template cDNA was then used in subsequent real-time PCR (qRT-PCR) reactions. Template was combined with target gene specific or β-actin control RT^2 PCR Primer Sets, RT^2 Real-Time™ SYBR Green/Rox Master Mix (SuperArray Bioscience Corp.), and ddH2O for a final reaction volume of 25 μL and run on a 7900HT Fast Real-Time PCR system (Applied Biosystems; Foster City, Calif.) following the manufacturer's protocol. Fold changes were calculated using the ΔΔCt method as recommended by the manufacture's protocol.

On to `C[C@]12CC[C@H](O)CC1=CC[C@@H]1[C@@H]2CC[C@]2(C)C(n3cnc4ccccc43)=CC[C@@H]12` [Compound 5, 3β-hydroxy-17-(1H-benzimidazole-1-yl)androsta-5,16-diene], for which, in the experiment with PC-3 cells [1], the down-regulated gene ontologies entry is reported as “associated with the cell cycle, especially S-phase (DNA replication)”; the “most enriched up-regulated gene ontologies” value is “those relating to stress and metabolism, in particular amino acid metabolism”. The “S100P calcium binding protein gene expression” value with PC-3 cells [1] (validated by qRT-PCR) is on record as “most highly up-regulated gene”. Moreover, the “effect on [Ca2+]i” value with PC-3 cells [2] (1 μM Compound 5, 2 hours) is reported as “did not have a significant effect”. The “average [Ca2+]i” value with PC-3 cells [2] (5 μM) stood at 79.13 nM. Further, the “average [Ca2+]i” value in the experiment with PC-3 cells [2] (10 μM) was 96.63 nM. Moreover, the “average [Ca2+]i” value in the experiment on PC-3 cells [2] (20 μM) is on record as 79.89 nM. Also, in the experiment on PC-3 cells [3], the CHOP gene expression entry was “strongly up-regulated”, the “activating transcription factor 4 (ATF4) gene expression” value is “up-regulated”, the “asparagines synthetase (ASNS) gene expression” value was “up-regulated” and the “cyclin D1 mRNA levels” value is on record as “not affected”. Besides, in the experiment with PC-3 cells [3], the “cyclin E2 mRNA” value is recorded as “significantly reduced”.
